The text below walks through data of PubChem BioAssay AID1259335.

For the assay, the system named is C. elegans L1 growth, INVAPP imaging, 5 days. Kind of assay: anthelmintic effect on nematode larval growth – whole organism, confirmation (AID 1259335).

In general, EC50 refers to the midpoint of the concentration-response curve.

In the case of `COC(=O)C1=C(C)NC(C)=C(C(=O)OC(C)C)[C@H]1c1cccc2nonc12`, the EC50 was 1600 nM.
Under `O=C(Nc1ccc2c(c1)B(O)OC2)c1ccccc1C(F)(F)F` stands 4300 nM.
For `COC(=O)Nc1nc2ccc(C(=O)c3ccccc3)cc2[nH]1`, the EC50 is 1100 nM.
With `Cc1cc(C(=O)Nc2ccc(-c3ccccc3)cc2)no1` the figure was 2500 nM; with `CCc1nn(C)c(C(=O)NCc2ccc(Oc3ccc(C)cc3)cc2)c1Cl`, 200 nM; with `Nc1ccc(C(=O)Nc2ccc(-c3nc4ccccc4o3)cc2)cc1`, 6200 nM.
Regarding `O=C(Nc1ccc(F)c(-c2nc3ncc(-c4ccccc4)cc3[nH]2)c1)N1CCCC1`, the EC50 is 3300 nM.
